{
  "source": "patent US20230339854A1",
  "about": "“Negative Allosteric Modulation of GluN3-Containing N-Methyl-D-Aspartate Receptors” (Emory University, priority 2020, published 2023)",
  "key": {"[1]": {"molecular_target": "T1, human GluN1/GluN3A receptors (Homo sapiens, UniProt Q05586+Q8TCU5)", "T1 construct": "Human GluN3A (NP_597702.2) and rat GluN3B (NP_579842.2) were synthesized and subcloned into SP6 plasmids; expressed in transfected cells; host or cells: Xenopus laevis oocytes, cRNA injection", "T1 sequence (Q8TCU5 24-1115, other chains not shown)": "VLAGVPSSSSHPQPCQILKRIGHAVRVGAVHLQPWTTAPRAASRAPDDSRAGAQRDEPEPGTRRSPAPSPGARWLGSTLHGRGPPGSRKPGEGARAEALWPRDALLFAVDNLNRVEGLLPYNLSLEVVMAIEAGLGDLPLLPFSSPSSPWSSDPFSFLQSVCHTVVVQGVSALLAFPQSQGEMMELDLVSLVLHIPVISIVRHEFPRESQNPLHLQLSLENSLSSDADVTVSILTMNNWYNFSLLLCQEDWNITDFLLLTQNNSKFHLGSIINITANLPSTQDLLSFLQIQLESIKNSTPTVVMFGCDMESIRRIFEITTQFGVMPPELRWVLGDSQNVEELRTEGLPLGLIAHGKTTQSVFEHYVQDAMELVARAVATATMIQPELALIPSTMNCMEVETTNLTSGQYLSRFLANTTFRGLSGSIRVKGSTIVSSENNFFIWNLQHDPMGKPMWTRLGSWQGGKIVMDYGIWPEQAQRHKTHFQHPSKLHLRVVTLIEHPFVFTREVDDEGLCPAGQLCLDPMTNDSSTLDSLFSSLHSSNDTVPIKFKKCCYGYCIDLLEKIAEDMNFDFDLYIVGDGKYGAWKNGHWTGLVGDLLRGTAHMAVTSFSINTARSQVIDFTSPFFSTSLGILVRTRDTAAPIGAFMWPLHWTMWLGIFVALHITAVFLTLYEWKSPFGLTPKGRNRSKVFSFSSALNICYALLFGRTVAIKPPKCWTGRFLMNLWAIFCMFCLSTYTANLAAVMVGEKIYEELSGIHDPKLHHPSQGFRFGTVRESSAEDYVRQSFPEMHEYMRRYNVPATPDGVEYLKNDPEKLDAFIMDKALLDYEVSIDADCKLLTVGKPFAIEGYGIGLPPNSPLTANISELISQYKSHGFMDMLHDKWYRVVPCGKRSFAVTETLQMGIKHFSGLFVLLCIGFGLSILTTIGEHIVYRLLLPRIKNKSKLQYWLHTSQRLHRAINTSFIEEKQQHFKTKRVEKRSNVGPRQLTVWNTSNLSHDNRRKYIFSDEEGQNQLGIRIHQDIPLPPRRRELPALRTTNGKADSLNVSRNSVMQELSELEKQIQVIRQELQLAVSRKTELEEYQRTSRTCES", "assay": "Two-electrode voltage-clamp recordings of GluN1/GluN3A receptors in the presence of CGP-78608 (Xenopus oocytes)", "format": "cell-based", "conditions": "pH 7.4; 0.5 μM CGP-78608; read-out: EC50, (95% CI) GluN1/GluN3A + CGP", "source_text": "(§1) cDNA encoding human wild-type (WT) GluN1-1a (GenBank accession numbers NP_015566, hereafter GluN1) and rat GluN1-1a (NP_058706.1) were synthesized and subcloned into pGEMHE plasmid; some experiments used the rat splice variant GluN1-4a (NP_001257531.1). Human GluN3A (NP_597702.2) and rat GluN3B (NP_579842.2) were synthesized and subcloned into SP6 plasmids. For most experiments, human GluN1 was co-expressed with human GluN3A, except for mutagenesis experiments where rat GluN1 was co-expressed with human GluN3A. Rat GluN1-4a was always expressed with rat GluN3B.\n(§2) Defolliculated Xenopus laevis oocytes (stage V-VI) were obtained from Ecocyte BioScience (Austin, Texas), or prepared from commercially available Xenopus ovaries (Xenopus 1, Dexter, MI) as previously described (Hansen, et al., Mol. Pharmacol., 2013). A Drummond Nanoject II (Broomall, PA) was used to inject oocytes with cRNAs encoding GluN1 and GluN3 at a 1:3 ratio in RNase-free water. The cRNA was diluted as needed to give responses with amplitudes ranging between 200-2000 nA (0.2-10 ng total cRNA). Following cRNA injection, the oocytes were stored at 15-19° C. in Barth's solution that contained (in mM) 88 NaCl, 2.4 NaHCO3, 1 KCl, 0.33 Ca(NO3)2, 0.41 CaCl2), 0.82 MgSO4, and 5 Tris-HCl (pH 7.4 with NaOH), supplemented with 1 μg/ml streptomycin (Invitrogen, Carlsbad, CA) and 100 μg/ml gentamicin (Fisher Scientific, Pittsburgh, PA). Recordings were performed 2-5 days following cRNA microinjection at room temperature (23° C.) using a two-electrode voltage-clamp amplifier (OC725, Warner Instrument, Hamilton, CT). The signal was low-pass filtered at 10-20 Hz (4-pole, −3 dB Bessel) and digitized at the Nyquist rate using PCI-6025E or USB-6212 BNC data acquisition boards (National Instruments, Austin, TX) using EasyOocyte (http://www.easyoocyte.io/). Oocytes were placed in a custom-made chamber and continuously perfused (2.5 ml/min) with oocyte recording solution containing (in mM) 90 NaCl, 1 KCl, 10 HEPES, 0.5-1.0 BaCl2, and 0.01 EDTA (pH 7.4 with NaOH). Solutions were applied by gravity, and solution exchange was controlled through a rotary valve (Hamilton, Reno, NV). Recording electrodes were filled with 0.3-3.0 M KCl, and current responses were recorded at a holding potential of −40 mV.\n(§3) Response (%)=(100−minimum)/(1+([concentration]/IC50)^nH)+minimum (2) • where nH is the Hill slope, IC50 is the concentration that produces a half-maximal effect, and minimum is the degree of residual inhibition at a saturating concentration of the negative allosteric modulator."}, "[2]": {"molecular_target": "T2, human GluN1/GluN3A receptors (Homo sapiens, UniProt Q8TCU5)", "T2 construct": "Human GluN3A (NP_597702.2) and rat GluN3B (NP_579842.2) were synthesized and subcloned into SP6 plasmids; expressed in transfected cells; host or cells: Xenopus laevis oocytes, cRNA injection", "T2 sequence (Q8TCU5 24-1115, other chains not shown)": "as above", "assay": "Two-electrode voltage-clamp recordings of GluN1/GluN3A receptors in the presence of CGP-78608 (Xenopus oocytes)", "format": "cell-based", "source_text": "as §1, §2, §3"}, "[3]": {"conditions": "500 nM CGP-78608 plus 100 μM glycine"}},
  "data": [
    {"molecule": "COc1ccc(OCC(c2ccc(OC)cc2)N2Cc3ccccc3C2=O)cc1", "note": "(racemic) [EU1180-438, 2-(2-(4-methoxyphenoxy)-1-(4-methoxyphenyl)ethyl)isoindolin-1-one]", "values": [
      {"measurement": "EC50", "setting": "[1]", "result": 1800, "unit": "nM"},
      {"measurement": "maximal inhibition", "setting": "[2]; 500 nM CGP-78608", "result": 85, "unit": "%"},
      {"measurement": "Slope", "setting": "[2]; [3]", "result": 1.5},
      {"measurement": "minimum", "setting": "[2]; [3]", "result": 15, "unit": "%"},
      {"measurement": "% Inhibition GluN1/GluN3A + CGP", "setting": "[2]; fitted maximum at saturating test compound, pH 7.4, 0.5 μM CGP-78608", "result": "85%, (n = 9)"}
    ]}
  ]
}
